Measured values: patent publication US8624034B2, “Fluoro-pyridinone derivatives useful as antibacterial agents” (Pfizer Inc., priority 2011, dated 2014)
Converted amounts (≈) assume the structure as drawn.

What was measured:
[1] = biological target: T1, Pseudomonas aeruginosa LpxC enzyme (Pseudomonas aeruginosa, UniProt P47205); test: IC50 assay, LpxC enzyme from P. aeruginosa (PA LpxC enzyme IC50); type: biochemical; settings: Table 3; LpxC enzyme 0.1 nM, 25° C., 1 hour; read-out: PA:IC50
T1 construct: made in house; host or cells: E. coli
T1 sequence (P47205 1-303): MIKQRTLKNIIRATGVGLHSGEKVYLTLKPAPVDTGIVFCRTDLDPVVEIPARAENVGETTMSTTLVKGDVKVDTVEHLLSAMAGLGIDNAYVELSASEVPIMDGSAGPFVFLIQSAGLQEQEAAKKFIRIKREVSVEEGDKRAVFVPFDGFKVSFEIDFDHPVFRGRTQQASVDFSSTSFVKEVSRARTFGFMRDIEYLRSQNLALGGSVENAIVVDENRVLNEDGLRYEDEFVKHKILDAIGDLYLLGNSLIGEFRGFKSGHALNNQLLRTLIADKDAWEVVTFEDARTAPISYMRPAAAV
Protocol: In order to assess the compounds biological activity, selected in vitro assays were conducted on selected compounds. One of the assays measured the compounds ability to disrupt the synthesis of lipopolysaccharide, LPS, which is a component of the outer membrane of Gram-negative bacteria. Disruption of this synthesis is lethal to the bacteria. The assay determined the compound's ability to inhibit LpxC, which is the first enzyme in the biosynthetic pathway for LPS (measured as IC50). Additionally, MICs (minimal inhibitory concentrations) were determined for several bacteria. The specific protocols are described below:
A) IC50 Assay, LpxC Enzyme from P. aeruginosa (Labeled as PA LpxC Enzyme IC50):
At the end of 1 hour, 5 ul of 1 N HCl was added to stop the enzyme reaction, the plates were centrifuged, and then processed with the BioTrove Rapidfire HTMS Mass Spectrometry System. A no-enzyme control was used in calculating the IC50 values from the percent conversion values.

PA:UC12120 = test: MIC determination, PA:UC12120 (Table 3); type: cell-based, Pseudomonas aeruginosa; settings: Pseudomonas aeruginosa, UC12120, Table 3, lower of duplicate values
Protocol: (§1) The in vitro antibacterial activity of compounds described in the Examples was evaluated by minimum inhibitory concentration (MIC) testing according to Clinical and Laboratory Standards Institute (CLSI). See: Clinical and Laboratory Standards Institute. Methods for Dilution Antimicrobial Susceptibility Tests for Bacteria that Grow Aerobically; Approved Standard-Eighth Edition. CLSI document M7-A8 [ISBN 1-56238-689-1]. Clinical and Laboratory Standards Institute, 940 West Valley Road, Suite 1400, Wayne, Pa. 19087-1898 USA, 2006; also Clinical and Laboratory Standards Institute. Performance Standards for Antimicrobial Susceptibility Testing; Twentieth Informational Supplement. CLSI document M100-S20 [ISBN 1-56238-716-2]. Clinical and Laboratory Standards Institute.
(§2) The MIC determination is a standard laboratory method for evaluating the antibacterial activity of a compound. The MIC represents the lowest drug concentration that inhibits visible growth of bacteria following overnight incubation. […] Typically, the drug concentration range is broken down into 2-fold increments (e.g. 0.06 μg/mL, 0.12 μg/mL. 0.25 μg/mL, 0.50 μg/mL, 1.0 μg/mL, etc.) and the various drug concentrations are all individually incubated overnight with approximately the same number of bacteria. The MIC is then determined by visually inspecting the drug effect at each concentration, and identifying the lowest drug concentration that has inhibited bacterial growth as compared to the drug free control. Typically, bacteria continue to grow at drug concentrations lower than the MIC and don't grow at concentrations at and above the MIC.
(§3) The MIC values described in Table 2 and 3 below were derived from assays wherein each test compound was evaluated in duplicate. In cases where the duplicate values varied by 0-2-fold, the lower of the two values was reported below. Generally speaking, if the duplicate values varied by more than 2-fold, the assay was considered non-valid and was repeated until the variation between duplicate runs was ≦2-fold. In line with the CLSI guidelines referred to above, both control organisms and reference compounds were utilized in each MIC assay to provide proper quality control. MIC values generated with these control organisms and reference compounds were required to fall within a defined range for the assay to be considered valid and be included herein. Those skilled in the art will recognize that MIC values can and do vary from experiment to experiment. Generally speaking, it should be recognized that MIC values often vary +/−2-fold from experiment to experiment. While a single MIC is reported for each compound and each microorganism, the reader should not conclude that each compound was only tested once. Several of the compounds were subjected to multiple tests. The data reported in Tables 2 and 3 is reflective of the compounds relative activity and different MICs may have been generated on these occasions in line with the guidelines described above.
In Table 3 below, column 1 corresponds to the Example number, column 2 provides the IUPAC name, columns 3-6 provide in vitro biological data generated in the same manner as in Table 2, columns 7 and 8 provide the retention times and mass spectra generated via LCMS, using the method described below. All data is not currently available for all compounds, as indicated by a blank cell in Table 3.

[2] = test system: Escherichia coli EC-1: VOGEL, mouse virulent; test: MIC determination, EC-1; type: cell-based; settings: Escherichia coli, read-out: EC-1 (MIC), Table 3, lower of duplicate values
Protocol: as §1, §2, §3
(§4) The following bacterial strains were used in these MIC determinations:
3) Escherichia coli EC-1: VOGEL, mouse virulent labeled as EC-1 in Tables 2 and 3;

[3] = test system: Acinetobacter baumannii/haemolyticus, multidrug-resistant clinical isolate (AB-3167); test: MIC determination, AB-3167; type: cell-based; settings: Table 3, lower of duplicate values
Protocol: as §1, §2, §3, §4
2) Acinetobacter baumannii/haemolyticus: Multidrug-resistant clinical isolate labeled as AB-3167 in Tables 2 and 3;

Row | SMILES | IC50 [1] | MIC (PA:UC12120) | MIC [2] | MIC [3]
1 | COc1cc(-c2cc(=O)n(CCC(C)(C(=O)NO)S(C)(=O)=O)cc2F)cnc1OC (stereo not drawn) [Example 75, 4-(5′-fluoro-5,6-dimethoxy-2′-oxo-3,4′-bipyridin-1′(2′H)-yl)-N-hydroxy-2-methyl-2-(methylsulfonyl)butanamide] | 45.4 nM | > 64 µg/mL | > 64 µg/mL | > 64 µg/mL
2 | CC(CCn1cc(F)c(-c2ccccc2C#N)cc1=O)(C(=O)NO)S(C)(=O)=O (stereo not drawn) [Example 94, 4-[4-(2-cyanophenyl)-5-fluoro-2-oxopyridin-1(2H)-yl]-N-hydroxy-2-methyl-2-(methylsulfonyl)butanamide] | 32.3 nM | 32 µg/mL (≈ 78.5 µM) | 8 µg/mL (≈ 19.6 µM) | 32 µg/mL (≈ 78.5 µM)
3 | CC(CCn1cc(F)c(-c2ccncc2F)cc1=O)(C(=O)NO)S(C)(=O)=O (stereo not drawn) [Example 73, 4-(3′,5-difluoro-2-oxo-4,4′-bipyridin-1(2H)-yl)-N-hydroxy-2-methyl-2-(methylsulfonyl)butanamide] | 8.3 nM | 8 µg/mL (≈ 19.9 µM) | > 64 µg/mL | > 64 µg/mL
4 | CC(CCn1cc(F)c(-c2cccnc2)cc1=O)(C(=O)NO)S(C)(=O)=O (stereo not drawn) [Example 65, 4-(5′-fluoro-2′-oxo-3,4′-bipyridin-1′(2′H)-yl)-N-hydroxy-2-methyl-2-(methylsulfonyl)butanamide] | 82.3 nM | 32 µg/mL (≈ 83.5 µM) | > 64 µg/mL | > 64 µg/mL
5 | Cc1cc(-c2cc(=O)n(CCC(C)(C(=O)NO)S(C)(=O)=O)cc2F)ccc1C#N (stereo not drawn) [Example 114, 4-[4-(4-cyano-3-methylphenyl)-5-fluoro-2-oxopyridin-1(2H)-yl]-N-hydroxy-2-methyl-2-(methylsulfonyl)butanamide] | 1.3 nM | 2 µg/mL (≈ 4.75 µM) | 4 µg/mL (≈ 9.49 µM) | > 64 µg/mL
6 | CC(CCn1cc(F)c(-c2ccc(C#N)cc2)cc1=O)(C(=O)NO)S(C)(=O)=O (stereo not drawn) [Example 124, 4-[4-(4-cyanophenyl)-5-fluoro-2-oxopyridin-1(2H)-yl]-N-hydroxy-2-methyl-2-(methylsulfonyl)butanamide] | 3.4 nM | 8 µg/mL (≈ 19.6 µM) | 32 µg/mL (≈ 78.5 µM) | > 64 µg/mL
7 | CC(CCn1cc(F)c(-c2ccc3c(c2)CNC3=O)cc1=O)(C(=O)NO)S(C)(=O)=O (stereo not drawn) [Example 108, 4-[5-fluoro-2-oxo-4-(1-oxo-2,3-dihydro-1H-isoindol-5-yl)pyridin-1(2H)-yl]-N-hydroxy-2-methyl-2-(methylsulfonyl)butanamide] | 7.2 nM | > 64 µg/mL | > 64 µg/mL | > 64 µg/mL
8 | COc1cc(C#N)cc(-c2cc(=O)n(CCC(C)(C(=O)NO)S(C)(=O)=O)cc2F)c1 (stereo not drawn) [Example 119, 4-[4-(3-cyano-5-methoxyphenyl)-5-fluoro-2-oxopyridin-1(2H)-yl]-N-hydroxy-2-methyl-2-(methylsulfonyl)butanamide] | 50.8 nM | 64 µg/mL (≈ 146 µM) | > 64 µg/mL | > 64 µg/mL
9 | CC(CCn1cc(F)c(-c2ccc3cn[nH]c3c2)cc1=O)(C(=O)NO)S(C)(=O)=O (stereo not drawn) [Example 51, 4-[5-fluoro-4-(1H-indazol-6-yl)-2-oxopyridin-1(2H)-yl]-N-hydroxy-2-methyl-2-(methylsulfonyl)butanamide] | 3.9 nM | > 64 µg/mL | > 64 µg/mL | > 64 µg/mL
10 | CC(CCn1cc(F)c(-c2ccc(O)cc2)cc1=O)(C(=O)NO)S(C)(=O)=O (stereo not drawn) [Example 53, 4-[5-fluoro-4-(4-hydroxyphenyl)-2-oxopyridin-1(2H)-yl]-N-hydroxy-2-methyl-2-(methylsulfonyl)butanamide] | 4.2 nM | 64 µg/mL (≈ 161 µM) | > 64 µg/mL | > 64 µg/mL
11 | CNC(=O)c1ccc(-c2cc(=O)n(CCC(C)(C(=O)NO)S(C)(=O)=O)cc2F)cc1 (stereo not drawn) [Example 84, 4-{5-fluoro-1-[4-(hydroxyamino)-3-methyl-3-(methylsulfonyl)-4-oxobutyl]-2-oxo-1,2-dihydropyridin-4-yl}-N-methylbenzamide] | 14.5 nM | > 64 µg/mL | > 64 µg/mL | > 64 µg/mL
12 | CC(CCn1cc(F)c(-c2ccc(F)cc2)cc1=O)(C(=O)NO)S(C)(=O)=O (stereo not drawn) [Example 86, 4-[5-fluoro-4-(4-fluorophenyl)-2-oxopyridin-1(2H)-yl]-N-hydroxy-2-methyl-2-(methylsulfonyl)butanamide] | 1.7 nM | 1 µg/mL (≈ 2.5 µM) | 4 µg/mL (≈ 9.99 µM) | > 64 µg/mL
13 | CC(CCn1cc(F)c(-c2ccc(C(F)(F)F)nc2)cc1=O)(C(=O)NO)S(C)(=O)=O (stereo not drawn) [Example 113, 4-[5′-fluoro-2′-oxo-6-(trifluoromethyl)-3,4′-bipyridin-1′(2′H)-yl]-N-hydroxy-2-methyl-2-(methylsulfonyl)butanamide] | 29.6 nM | 32 µg/mL (≈ 70.9 µM) | > 64 µg/mL | > 64 µg/mL
14 | COc1cc(-c2cc(=O)n(CCC(C)(C(=O)NO)S(C)(=O)=O)cc2F)ccc1C#N (stereo not drawn) [Example 74, 4-[4-(4-cyano-3-methoxyphenyl)-5-fluoro-2-oxopyridin-1(2H)-yl]-N-hydroxy-2-methyl-2-(methylsulfonyl)butanamide] | 5.9 nM | 16 µg/mL (≈ 36.6 µM) | 64 µg/mL (≈ 146 µM) | > 64 µg/mL
15 | CNC(=O)c1ccc(-c2cc(=O)n(CCC(C)(C(=O)NO)S(C)(=O)=O)cc2F)cc1F (stereo not drawn) [Example 52, 2-fluoro-4-{5-fluoro-1-[4-(hydroxyamino)-3-methyl-3-(methylsulfonyl)-4-oxobutyl]-2-oxo-1,2-dihydropyridin-4-yl}-N-methylbenzamide] | 2.2 nM | 32 µg/mL (≈ 70 µM) | 64 µg/mL (≈ 140 µM) | > 64 µg/mL
16 | CC(CCn1cc(F)c(-c2ccc(CCC#N)cc2)cc1=O)(C(=O)NO)S(C)(=O)=O (stereo not drawn) [Example 77, 4-{4-[4-(2-cyanoethyl)phenyl]-5-fluoro-2-oxopyridin-1(2H)-yl}-N-hydroxy-2-methyl-2-(methylsulfonyl)butanamide] | 2.6 nM | 4 µg/mL (≈ 9.19 µM) | 32 µg/mL (≈ 73.5 µM) | > 64 µg/mL
17 | CC(CCn1cc(F)c(-c2cccc(F)c2)cc1=O)(C(=O)NO)S(C)(=O)=O (stereo not drawn) [Example 116, 4-[5-fluoro-4-(3-fluorophenyl)-2-oxopyridin-1(2H)-yl]-N-hydroxy-2-methyl-2-(methylsulfonyl)butanamide] | 1 nM | 1 µg/mL (≈ 2.5 µM) | 4 µg/mL (≈ 9.99 µM) | > 64 µg/mL
18 | COc1cccc(-c2cc(=O)n(CCC(C)(C(=O)NO)S(C)(=O)=O)cc2F)c1 (stereo not drawn) [Example 100, 4-[5-fluoro-4-(3-methoxyphenyl)-2-oxopyridin-1(2H)-yl]-N-hydroxy-2-methyl-2-(methylsulfonyl)butanamide] | 2.5 nM | 2 µg/mL (≈ 4.85 µM) | 4 µg/mL (≈ 9.7 µM) | > 64 µg/mL
